# Measurements as given in patent US20160120915A1, “METHODS FOR MANIPULATING IMMUNE RESPONSES BY ALTERING MICROBIOTA” (NEW YORK UNIVERSITY, priority 2013, published 2016).
# Counter-ions that a name gives are not always drawn.
# How the values were obtained:
# ileum = experiment: TRANSTAT: ileal expression by qPCR in 18-week microbiota donor mice; assay type: in vivo, C57BL6J mice; conditions: 18-week STAT-donor mice vs control donors
# Description: Total RNA was extracted from mouse tissues using the RNeasy Mini Kit (Qiagen), according to the manufacturer's instructions. Total RNA was reverse transcribed to cDNA using the Verso™ cDNA Synthesis Kit (Thermo Scientific). To generate standards for expression analysis of each target gene, the cDNA region of interest was PCR-amplified and the PCR product was cloned into pGEM-T easy (Promega). qPCR was performed with LightCycler 480 SYBR Green I Master mix (Roche) and run in a LightCycler 480 system (Roche). Target mRNA was normalized to GAPDH mRNA as an internal control in each sample.
# C57BL/6J (Jackson Labs, Bar Harbor, Me.) mice either received no antibiotics (control) or continuous STAT penicillin. Mice were weaned at 4 weeks onto normal chow (13.2% fat, 5053 PicoLab Rodent Diet 20, LabDiet, Brentwood, Mo.), then changed to a high fat diet (45% kcal from fat, D12451, Research Diets, New Brunswick, N.J.) at 6 weeks of life. At 18 weeks of age, from each group (Control, n=9; STAT, n=8), the three animals with weight at or closest to the median were selected as cecal content donors. Donor mice were humanely euthanized, and the proximal ⅓ of the cecum was aseptically removed and after a series of processing steps, either the pooled Control or STAT microbiota suspensions were placed in the stomachs of the germ-free recipients (Control, n=7 recipients; STAT, n=8) by oral gavage. Recipients were chosen randomly, and the inoculum alternated between control and STAT recipients. […] The microbiota-recipient mice were housed in autoclaved cages, under specific pathogen-free conditions, and fed an irradiated high fat diet (45% kcal from fat, D12451, Research Diets, New Brunswick, N.J.), and followed for the next 35 days until sacrifice. Fecal pellets were collected serially from the time of transfer.
# Mice were fed normal chow, then switched to high fat diet at 6 weeks of age. At 18 weeks, cecal contents were collected from 3 control and 3 STAT mice, based on their median weight, pooled, and transferred to 3-4 week old germ-free Swiss Webster mice by oral gavage. Every attempt was made to maintain viability of the microbiota by protecting the microbiota from oxygen and minimizing time between microbiota collection and transfer. Microbiota recipient mice were monitored for 5 weeks, then ileal samples were collected to assess immunity by flow cytometry and qPCR. Ileal gene expression was also measured by microarray and Nanostring Immunology Panel (FIG. 13).
# Expression levels were measured by qPCR and normalized by GAPDH expression.
# [1] = system: CD3+CD4+ lamina propria lymphocytes; experiment: Flow cytometry of lamina propria lymphocytes for Th17-produced cytokines, 8-week STAT; assay type: in vivo, C57BL/6J mice; conditions: small and large intestine, STAT vs control
# Excerpt: Lamina propria lymphocytes (LPL) from both small and large intestine were isolated from 8-week STAT mice (Control n=4, STAT n=4) and analyzed for intracellular, Th17-produced cytokines by flow cytometry. Plots gated on CD3+CD4+LPL. IL-17^+ and IL-22^+ cells were decreased in STAT compared to control mice in both the small and large intestine (FIG. 5).
# Small and large intestines of mice were dissected, and all mesenteric fat and Peyer's patches were removed. Intestines were fileted for removal of stool, cut into 2 cm pieces, and washed with PBS. Tissues were transferred to tubes with 10 ml 1 mM DTT/PBS, shaken at RT for 10 minutes, and transferred to tubes with 30 mM EDTA and 10 mM HEPES in PBS. Intestines were then shaken at 37° C. for 20 minutes and washed in complete RPMI. The small and large intestines were digested at 37 C for 1.5 hours in 100 units/ml collagenase Type VIII (Sigma) and 150 μg/ml DNase (Sigma) in complete RPMI. Cells were filtered through a 50 micron filter, washed with 5 ml PBS, and pelleted. Cells were then resuspended in 40% Percoll (GE Healthcare), under-layed with 80% Percoll, and centrifuged at 2,200 rpm for 20 min at RT. […]
# Cells were stimulated with phorbol 12-myristate 13-acetate (PMA) and ionomycin for 4 hours at 37 C with the addition of GolgiPlug (BD). […] Cells were acquired on an LSRII (BD) and analyzed with FlowJo (Tree Star, Inc.) software.
# terminal ileum = experiment: PAT: ileal gene expression profiling by whole genome microarray, 6-week mice; assay type: in vivo, C57BL/6 mice; conditions: 6-week PAT vs Control, T-test p<0.05 and fold change ≧1.2 or ≦0.8
# Description: Ileal gene expression profiling of STAT, PAT, and control animal groups, was performed using the Affymetrix Genechip system (Affymetrix). Total RNA quality and quantity were determined using the Agilent 2100 Bioanalyser and Nanodrop ND-1000. Total RNA (100 ng) was used to prepare cDNA following the Affymetrix […] Express Kit labelling protocol (Affymetrix). Standardized array processing procedures recommended by Affymetrix were performed, including hybridization, fluidics processing and scanning of the Affymetrix MG-430 2.0 arrays. GeneSpring GX11 software (Agilent Technologies) was used to normalize the raw data (Affymetrix CEL files) by Robust Multichip Average algorithm (RMA).
# 1127 and 3065 reproducibly regulated genes were identified from ˜45,000 genes of the mouse genome by T-test (p<0.05) and fold change (≧1.2 or ≦0.8) in 6-week PAT (Panel A; Control vs Amoxicillin and Panel B; Control vs Tylosin), respectively (FIG. 22). DAVID analysis was performed using the regulated genes, and Gene Set Enrichment analysis (GSEA) was performed using whole gene data.
# (C, n=3), amoxicillin (A, n=3), and tylosin treated mice (T, n=3).
Compound,ileal expression of IL-17A (ileum),ileal expression of IL-17F (ileum),ileal expression of RORγt (ileum),ileal expression of Reg3γ (ileum),ileal expression of defensin β1 (ileum),IL-17+ cells among CD3+CD4+ LPL [1],IL-22+ cells among CD3+CD4+ LPL [1],"reproducibly regulated genes out of ~45,000 genes of the mouse genome (terminal ileum)"
"CC1(C)S[C@@H]2[C@H](NC(=O)COc3ccccc3)C(=O)N2[C@H]1C(=O)[O-].[K+] [STAT, penicillin VK]",significantly down-regulated,downward trend,downward trend,significantly down-regulated,significantly down-regulated,decreased,decreased,
"CC[C@H]1OC(=O)C[C@@H](O)[C@H](C)[C@@H](O[C@@H]2O[C@H](C)[C@@H](O[C@H]3C[C@@](C)(O)[C@@H](O)[C@H](C)O3)[C@H](N(C)C)[C@H]2O)[C@@H](CC=O)C[C@@H](C)C(=O)/C=C/C(C)=C/[C@@H]1CO[C@@H]1O[C@H](C)[C@@H](O)[C@@H](OC)[C@H]1OC [Tylosin, Tylosin tartrate]",,,,,,,,3065
